In ChEMBL document CHEMBL1155336, “Design and discovery of 1,3-benzodiazepines as novel dopamine antagonists” (Bioorg Med Chem Lett, 2009) one finds Ratio and pKa data, which are given here for 24 compounds.

By pKa is commonly meant the negative logarithm of the acid dissociation constant. High values mean a group that holds its proton tightly, low ones a group that gives up its proton readily.

For the first data set, the species on record is Homo sapiens. As to the kind of experiment: Selectivity ratio, the ratio of ki for human D2 receptor to Ki for human D1 receptor.
As for `CSC1=NCCc2cc(Cl)c(O)cc2N1`, the Ratio was 5.
Still for that read-out and setting: to `CN(C)c1ccc(/C=C/C2=NCCc3cc(Cl)c(O)cc3N2c2ccccc2)cc1` belongs 23; to `Oc1cc2c(cc1Cl)CCN=C(c1ccccc1)N2`, 42; to `Oc1cc2c(cc1Cl)CCN=C(NC1CC1)N2`, 6.
Same read-out and setting: to `CC(C)CC1=NCCc2cc(Cl)c(O)cc2N1` belongs 17; to `COc1ccc2cc(C3=NCCc4cc(Cl)c(O)cc4N3)ccc2c1`, 4; to `CC1=NCCc2cc(Cl)c(O)cc2N1c1ccc(C)cc1`, 55.
On the same count and under the same terms, the value for `Oc1cc2c(cc1Cl)CCN=C(SCc1ccccc1)N2` was 2; that for `CC1=NCCc2cc(Cl)c(O)cc2N1c1ccccc1` was 36; that for `CC1=NCCc2cc(Cl)c(O)cc2N1c1ccsc1` was 32.
For `NC1=NCCc2cc(Cl)c(O)cc2N1`, the Ratio was 1.
Still for that read-out and setting: the value for `CC1=NCCc2cc(Cl)c(O)cc2N1c1ccccc1C` was 31; that for `CC1=NCCc2cc(Cl)c(O)cc2N1Cc1ccccc1` was 3.
Still for that read-out and setting: to `CNC1=NCCc2cc(Cl)c(O)cc2N1` belongs 13; to `Oc1cc2c(cc1Cl)CCN=C(NC1CCCC1)N2`, 12; to `CN(C)c1ccc(/C=C/C2=NCCc3cc(Cl)c(O)cc3N2C2CCCCC2)cc1`, 8.
Regarding `Oc1cc2c(cc1Cl)CCN=C(NC1CCCCC1)N2`, the Ratio stood at 12.
Still for that read-out and setting: to `COc1ccc(/C=C/C2=NCCc3cc(Cl)c(O)cc3N2)cc1` belongs 3; to `Oc1cc2c(cc1Cl)CCN=C(C1CC1)N2`, 1; to `Oc1cc2c(cc1Cl)CCN=C(C1CCCCC1)N2`, 7.
The same measure, in the same setting: to `COc1ccc(C2CC2C2=NCCc3cc(Cl)c(O)cc3N2)cc1` (centres undefined) belongs 3.
For `Oc1cc2c(cc1Cl)CCN=C(NCCc1ccccc1)N2`, the Ratio was determined as 1.

Test system in the next data set: not listed separately
Put plainly: Ionization constant for the compound (pKa). In kind it is physicochemical.
In turn, `N=C(N)Nc1ccccc1` [PHENYLGUANIDINE] came in with a pKa of 10.8.
Still for that read-out and setting: the value for `CCCC/N=C/N(C)c1ccccc1` was 8.9.
